Data on seven compounds can be found in BindingDB's records for doi:10.1074/jbc.M110.120576 (Pharmaleads, 2010).

Broadly, the IC50 is the midpoint of a concentration-inhibition curve. Lower therefore signals greater potency in that assay. As usually defined, the Ki is the equilibrium dissociation constant of an inhibitor or competing ligand from its target. A high value points to a looser hold on the target.

Chain of EEF1AKMT4-ECE2 readthrough transcript protein (P0DPD8 whole entry): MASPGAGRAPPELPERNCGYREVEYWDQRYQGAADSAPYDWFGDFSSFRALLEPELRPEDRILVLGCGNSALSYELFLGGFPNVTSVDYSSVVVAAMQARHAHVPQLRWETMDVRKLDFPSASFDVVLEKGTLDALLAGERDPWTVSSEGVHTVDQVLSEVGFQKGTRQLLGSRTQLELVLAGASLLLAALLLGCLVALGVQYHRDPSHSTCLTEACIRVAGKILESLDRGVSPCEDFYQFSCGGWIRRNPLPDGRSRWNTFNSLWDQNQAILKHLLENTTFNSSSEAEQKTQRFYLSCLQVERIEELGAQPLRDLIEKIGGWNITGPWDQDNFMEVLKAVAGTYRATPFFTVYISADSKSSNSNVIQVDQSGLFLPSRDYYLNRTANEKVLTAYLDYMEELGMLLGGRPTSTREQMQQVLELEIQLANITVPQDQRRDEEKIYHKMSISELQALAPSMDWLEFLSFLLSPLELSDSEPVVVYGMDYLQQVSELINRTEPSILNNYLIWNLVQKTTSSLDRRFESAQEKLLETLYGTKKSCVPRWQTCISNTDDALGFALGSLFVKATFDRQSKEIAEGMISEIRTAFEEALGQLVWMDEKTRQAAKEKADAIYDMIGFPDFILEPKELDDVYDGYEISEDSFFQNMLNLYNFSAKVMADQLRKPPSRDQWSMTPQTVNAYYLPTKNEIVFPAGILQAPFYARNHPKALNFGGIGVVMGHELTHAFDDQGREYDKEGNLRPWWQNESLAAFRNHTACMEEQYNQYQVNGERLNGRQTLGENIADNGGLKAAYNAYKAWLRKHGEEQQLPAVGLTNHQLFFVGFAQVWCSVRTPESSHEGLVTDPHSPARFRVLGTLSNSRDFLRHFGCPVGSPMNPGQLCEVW

This experiment addresses EEF1AKMT4-ECE2 readthrough transcript protein (Homo sapiens, UniProt P0DPD8). Put plainly: Enzymatic Assay. From the text:
Inhibitory assay against ECE-2.
On to `CC(C)C[C@H](NP(=O)(O)O[C@@H]1O[C@@H](C)[C@H](O)[C@@H](O)[C@H]1O)C(=O)N[C@@H](Cc1c[nH]c2ccccc12)C(=O)O` [(S)-2-{(R)-2-[Hydroxy-((2R,3R,4R,5R,6S)-3,4,5-trihydroxy-6-methyl-tetrahydro-pyran-2-yloxy)-phosphorylamino]-4-methyl-pentanoylamino}-3-(1H-indol-3-yl)-propionic acid], for which the IC50 came out at 2.33 nM and the affinity corresponds to a Ki of 1.2 nM.

As for `O=C(O)CNC(=O)[C@@H](CS)Cc1ccccc1` [2-(2-benzyl-3-sulfanylpropanamido)acetic acid], the IC50 was > 100000 nM and the inhibition constant Ki was > 100000 nM.

On to `C[C@H](CS)C(=O)N1CCC[C@H]1C(=O)O` [(2S)-1-[(2S)-2-methyl-3-sulfanylpropanoyl]pyrrolidine-2-carboxylic acid], for which the half-maximal inhibitory concentration (IC50) is > 100000 nM and the Ki was > 100000 nM.

The compound `O=C(N[C@@H](Cc1c[nH]c2ccccc12)C(=O)O)C(CS)C1CCc2cc(Br)ccc21` (stereo partly drawn) [(2S)-2-[2-(5-bromo-2,3-dihydro-1H-inden-1-yl)-3-sulfanylpropanamido]-3-(1H-indol-3-yl)propanoic acid, 1] registered an IC50 of 43.4 nM and a Ki of 22.3 nM.

For `O=C(O)CC(=O)N[C@@H](CS)Cc1ccccc1` [Retrothiorphan], the IC50 was > 10000 nM and the inhibition constant (Ki) was > 10000 nM.

`O=C(O)[C@H](Cc1c[nH]c2ccccc12)NC(=O)[C@H](CS)C1CCc2ccccc21` (stereo partly drawn) [(2S)-2-[(2R)-2-(2,3-dihydro-1H-inden-1-yl)-3-sulfanylpropanamido]-3-(1H-indol-3-yl)propanoic acid, 2] displayed an IC50 of 15.1 nM and a Ki of 7.7 nM.

`C[C@H](NC(=O)[C@@H](CC(=O)NO)Cc1ccccc1)C(=O)O` [Kelatorphan] had an IC50 of 380 nM and an inhibition constant Ki of 195 nM.
